This experiment has as its target T1, TRPV3 (G573C) (Homo sapiens, UniProt Q8NET8, G573C).
T1 construct: host or cells: HEK 293T (transient transfection, pEGFP-N1 co-transfected as a marker)
T1 sequence (Q8NET8 1-790 G573C): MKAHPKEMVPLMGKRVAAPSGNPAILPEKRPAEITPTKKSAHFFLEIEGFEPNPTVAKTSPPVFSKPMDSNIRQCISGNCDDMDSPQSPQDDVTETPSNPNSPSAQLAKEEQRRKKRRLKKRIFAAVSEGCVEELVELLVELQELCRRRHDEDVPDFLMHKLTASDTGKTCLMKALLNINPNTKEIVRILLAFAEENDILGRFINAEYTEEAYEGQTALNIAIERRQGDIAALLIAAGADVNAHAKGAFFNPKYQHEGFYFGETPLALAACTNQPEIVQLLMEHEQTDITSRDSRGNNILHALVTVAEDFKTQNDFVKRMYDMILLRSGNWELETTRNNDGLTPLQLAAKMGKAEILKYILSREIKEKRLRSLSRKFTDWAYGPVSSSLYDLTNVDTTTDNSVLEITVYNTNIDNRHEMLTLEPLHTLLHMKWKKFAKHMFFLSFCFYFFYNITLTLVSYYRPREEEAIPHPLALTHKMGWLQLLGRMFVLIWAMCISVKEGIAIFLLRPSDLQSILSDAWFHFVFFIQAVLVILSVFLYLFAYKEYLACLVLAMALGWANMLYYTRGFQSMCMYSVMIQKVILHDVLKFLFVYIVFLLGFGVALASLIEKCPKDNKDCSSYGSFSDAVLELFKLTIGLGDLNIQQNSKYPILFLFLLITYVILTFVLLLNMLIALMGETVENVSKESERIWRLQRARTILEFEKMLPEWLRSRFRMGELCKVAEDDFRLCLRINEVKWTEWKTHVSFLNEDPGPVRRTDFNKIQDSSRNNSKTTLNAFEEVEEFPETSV
The experiment in a line: Fura-2 calcium imaging, spontaneous Ca2+ increase in TRPV3 (G573C)-expressing HEK 293T cells. The experiment is classed as cell-based. To be noted: 1 µM. An excerpt:
Figure 4 Alpha-mangostin inhibited the activity of hyperactive TRPV3 mutant channels and rescued mutation-induced cell death. (A) Alpha-mangostin inhibited the channel current in representative TRPV3 (G573S)- and TRPV3 (G573C)-expressing HEK 293T cells. […] Currents were normalized to the response at −100 mV before adding alpha-mangostin. (C) Alpha-mangostin inhibited TRPV3-mediated intracellular calcium increase in TRPV3 (G573S)-expressing HEK 293T cells. […] The bar graph on the right summarizes the change in the intracellular calcium rise inhibited by alpha-mangostin. […]
Subsequently, the effects of alpha-mangostin on the activities of the mutated channels were further evaluated using intracellular calcium measurements.
Fura-2 AM (Thermo Fisher Scientific) was utilized as a fluorescent indicator to measure calcium signal, as described previously. […] To measure the cytosolic Ca^2+ level, a sequential excitation of Fura-2 is performed at 340 nm and 380 nm; then, the emission signals resulting from each excitation wavelength are measured and the ratio of these signals is calculated. […] Samples were excited using a wavelength of 380 nm for 20 ms, followed by 340 nm for 100 ms, and fluorescence at 510 nm was recorded. Recorded data were then analyzed using NIS-Element AR Version 5.00.00 (Nikon Instruments, Melville, NY, USA). […]

Consider one molecule from publication PMC10455244, “Alpha-Mangostin: A Potent Inhibitor of TRPV3 and Pro-Inflammatory Cytokine Secretion in Keratinocytes” (International Journal of Molecular Sciences, 2023).

Molecules are shown by their SMILES.

On to `COc1c(O)cc2oc3cc(O)c(CC=C(C)C)c(O)c3c(=O)c2c1CC=C(C)C` [Alpha-mangostin], for which the “Effect on spontaneous intracellular calcium increase” value is “potently attenuated”.
